The values that follow come from patent publication US4393225A, “AI-77 Compounds and pharmaceutically acceptable salts thereof” (Asahi Kasei Kogyo Kabushiki Kaisha, priority 1979, dated 1983).

One data set deals with ulcer. As to the kind of experiment: Anti-ulcer test (restraint and water immersion ulcer in rats, i.p.). It is filed as in vivo, Male Wistar rats. To be noted: Rattus norvegicus, ip; 50 mg/kg i.p.; read-out: % Inhibition of Ulcer. The essentials: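 Compound given intraperitoneally in saline to 24 h-fasted male Wistar rats about 150 g, followed after one hour by 6 h restraint with water immersion at 21 °C. Gastric lesions graded 0, 0.5, 1, 2 or 3 on microscopic inspection and converted to percent ulcer inhibition.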

Data set [1] can be described thus: Solubility of compounds A to G. Type of data set: physicochemical. Particulars: in water and organic solvents.
A short description of data set [2]: Stability (heat, alkali, aqueous solution) of compounds A to G. It is filed as physicochemical.

On to `CC(C)CC(NC(=O)C(O)C1C=CC(=O)O1)C1Cc2cccc(O)c2C(=O)O1` (stereo not drawn) [F], for which the inhibition in vivo at 50 mg/kg in the data set with ulcer turned out to be 44%. The solubility result in data set [1] is “freely soluble in ethyl acetate, chloroform, dimethylformamide and dimethyl sulfoxide, sparingly soluble in lower alcohols and dioxane, and substantially insoluble in water, hexane and benzene”. The “stability to heat and/or alkali” value in data set [2] is “as labile to alkali as AI-77-B”.
For the compound `CC(C)CC(NC(=O)C(O)C(O)C(N)CC(=O)O)C1Cc2cccc(O)c2C(=O)O1` (stereo not drawn) [B], the inhibition in vivo at 50 mg/kg in the data set with ulcer came to 100%. The solubility entry in data set [1] was “freely soluble in water, methanol, dimethylformamide and dimethyl sulfoxide, sparingly soluble in other lower alcohols, dioxane and tetrahydrofuran, and substantially insoluble in ethyl acetate, chloroform, ether, hexane and benzene”. Besides, in data set [2], the “stability to heat and/or alkali” value is recorded as “labile to alkali in which the hydrolysis of lactone proceeds gradually even at room temperature”.
For `CC(=O)NC1CC(=O)OC1C(O)C(=O)NC(CC(C)C)C1Cc2cccc(O)c2C(=O)O1` (stereo not drawn) [C], the inhibition in vivo at 50 mg/kg in the data set on ulcer stood at 66%. In addition, the solubility result in data set [1] is “freely soluble in lower alcohols, dimethylformamide, dimethyl sulfoxide and dioxane, sparingly soluble in chloroform and ethyl acetate, and substanitally insoluble in water, ether, hexane and benzene”. In addition, the “stability to heat and/or alkali” value in data set [2] is reported as “as labile to alkali is AI-77-B”.
